Test systems include HL-60(TB) leukemia; UACC-62 melanoma; T-47D breast; SK-OV-3 ovarian; NCI-H226 lung; MDA-N; SK-MEL-28 melanoma; COLO 205 colon; TK-10 renal; 786-0 renal; CCRF-CEM leukemia.
Experiment in all cases: inhibition of tumour cell growth, NCI panel, 48 h

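Each compound was tested at five concentrations against cells in 96-well plates for 48 hours. TGI: concentration producing complete growth inhibition.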

On to `COc1ccc2cc(C(C)C(=O)N3C(=O)OCC3(C)C)ccc2c1` (stereo unspecified), for which the TGI with HL-60(TB) leukemia, with UACC-62 melanoma, with T-47D breast, with SK-OV-3 ovarian, in the assay with NCI-H226 lung and in the assay with MDA-N was > 100 µM each time. In addition, the TGI in the assay on SK-MEL-28 melanoma, in the assay on COLO 205 colon, with TK-10 renal and in the assay with 786-0 renal was > 100 µM throughout.
`CC(C)(C)OC(=O)c1ccc(NCC2=C(Br)C(=O)C=CC2=O)cc1`: the TGI was 36.1 µM in the assay on UACC-62 melanoma; 41.4 µM in the assay on T-47D breast; > 100 µM in the assay with SK-OV-3 ovarian; > 90.1 µM with NCI-H226 lung; 48.1 µM in the assay with MDA-N; 41.2 µM in the assay with SK-MEL-28 melanoma. The TGI in the assay on COLO 205 colon is 33.6 µM; with TK-10 renal it was 48.2 µM; in the assay on 786-0 renal, 37.5 µM; with CCRF-CEM leukemia, > 24.9 µM.
`CC(C)(C)C1=C(Br)C(O)(C(C)(C)C)OP1(=O)c1ccccc1` (stereo unspecified): the TGI in the assay with HL-60(TB) leukemia, with UACC-62 melanoma, with T-47D breast, in the assay with SK-OV-3 ovarian, in the assay on MDA-N and in the assay with SK-MEL-28 melanoma was > 100 µM in each case. The TGI in the assay with COLO 205 colon, in the assay on TK-10 renal, in the assay with 786-0 renal and in the assay on CCRF-CEM leukemia was > 100 µM throughout.
With `Clc1cc(Cl)ncn1`, the TGI in the assay on UACC-62 melanoma, in the assay with T-47D breast, in the assay with SK-OV-3 ovarian, in the assay with NCI-H226 lung, with MDA-N and in the assay with SK-MEL-28 melanoma was > 100 µM throughout. The TGI in the assay on COLO 205 colon, in the assay with TK-10 renal, in the assay with 786-0 renal and in the assay on CCRF-CEM leukemia was > 100 µM in each case.
With `O=C(N=Nc1ccccc1Cl)NNc1ccccc1Cl`, the TGI is 44.9 µM with HL-60(TB) leukemia; > 100 µM in the assay with UACC-62 melanoma; > 100 µM with T-47D breast; > 100 µM with NCI-H226 lung; > 100 µM in the assay with MDA-N; > 100 µM in the assay with SK-MEL-28 melanoma. Further, the results for the TGI with TK-10 renal, in the assay with 786-0 renal and in the assay with CCRF-CEM leukemia were > 100 µM, 34.4 µM and 53.6 µM, respectively.
For the compound `C#CCOC(=O)c1ccc(OC(C)=O)cc1`, the TGI with UACC-62 melanoma, in the assay on T-47D breast, with SK-OV-3 ovarian, in the assay on NCI-H226 lung, with MDA-N and with COLO 205 colon was > 100 µM in each case. Further, the TGI with TK-10 renal, in the assay with 786-0 renal and with CCRF-CEM leukemia was > 100 µM throughout.
Take `CC1(C)C=C(/C=N/Nc2ccccc2)C(C#N)=C(O)C1(C#N)C#N`: the TGI in the assay with HL-60(TB) leukemia, in the assay with UACC-62 melanoma, in the assay on SK-OV-3 ovarian, in the assay on NCI-H226 lung, in the assay with MDA-N and with SK-MEL-28 melanoma was > 100 µM each time. Moreover, the TGI in the assay with COLO 205 colon, in the assay on TK-10 renal, in the assay on 786-0 renal and in the assay with CCRF-CEM leukemia was > 100 µM throughout.
On to `CCOC1=C(c2ccccc2)N2CCCCC2O1` (stereo unspecified), for which the TGI in the assay on UACC-62 melanoma is 10 µM; in the assay with T-47D breast, 6.82 µM; in the assay with NCI-H226 lung, 32.5 µM; in the assay with MDA-N, 21.7 µM; in the assay on SK-MEL-28 melanoma, > 63.2 µM; in the assay on COLO 205 colon, 4.7 µM. Also, the values for the TGI in the assay on TK-10 renal, in the assay on 786-0 renal and with CCRF-CEM leukemia were > 38.6 µM, > 100 µM and > 72.4 µM, respectively.
With `C[C@H](C1CC2(C)OC2(C)C(=O)O1)[C@H]1CC[C@H]2[C@@H]3[C@@H]4O[C@@H]4[C@@]4(O)CC=CC(=O)[C@]4(C)[C@H]3CC[C@]12C` (stereo partly specified), the TGI in the assay with HL-60(TB) leukemia, with UACC-62 melanoma, in the assay with T-47D breast, in the assay with SK-OV-3 ovarian, in the assay with NCI-H226 lung and with MDA-N was > 50 µM throughout. Moreover, the TGI in the assay with SK-MEL-28 melanoma, in the assay on COLO 205 colon, in the assay on TK-10 renal and with 786-0 renal was > 50 µM throughout.
On to `Oc1ccc(Oc2cc3c(cc2Oc2ccc(O)cc2)-c2nc-3nc3[nH]c(nc4nc(nc5[nH]c(n2)c2cc(Oc6ccc(O)cc6)c(Oc6ccc(O)cc6)cc52)-c2cc(Oc5ccc(O)cc5)c(Oc5ccc(O)cc5)cc2-4)c2cc(Oc4ccc(O)cc4)c(Oc4ccc(O)cc4)cc32)cc1`, for which the TGI in the assay on UACC-62 melanoma, with T-47D breast, in the assay on SK-OV-3 ovarian, with NCI-H226 lung, in the assay with MDA-N and in the assay with SK-MEL-28 melanoma was > 100 µM throughout. Further, the TGI in the assay with COLO 205 colon, in the assay on TK-10 renal, in the assay on 786-0 renal and with CCRF-CEM leukemia was > 100 µM throughout.
`NC(=S)NC/C=C/Cl`: the TGI in the assay on HL-60(TB) leukemia, in the assay on UACC-62 melanoma, in the assay on T-47D breast, in the assay on SK-OV-3 ovarian, in the assay on NCI-H226 lung and in the assay on MDA-N was > 100 µM each time. In addition, the TGI in the assay on COLO 205 colon, in the assay with TK-10 renal, with 786-0 renal and with CCRF-CEM leukemia was > 100 µM each time.
`COc1nc(C#CC2CCCCC2)nc(OC)n1`: the TGI in the assay on HL-60(TB) leukemia was 26 µM; in the assay on UACC-62 melanoma it was 4.38 µM; in the assay with T-47D breast, > 100 µM; in the assay on SK-OV-3 ovarian, > 100 µM; with MDA-N it was 25.2 µM; in the assay with SK-MEL-28 melanoma, 32.8 µM. The TGI was determined as 53.5 µM with COLO 205 colon, 7.77 µM in the assay with 786-0 renal and 11.7 µM with CCRF-CEM leukemia.
Consider `CCOC(=O)c1cc(Br)c(-c2onc(C)c2Br)[nH]1`, for which the TGI was > 100 µM in the assay with HL-60(TB) leukemia; > 100 µM in the assay on UACC-62 melanoma; > 100 µM in the assay on T-47D breast; 74.4 µM in the assay with SK-OV-3 ovarian; > 100 µM in the assay with NCI-H226 lung; > 100 µM with MDA-N. Moreover, the TGI in the assay on SK-MEL-28 melanoma is > 100 µM; in the assay with COLO 205 colon, > 100 µM; in the assay on 786-0 renal, 59.3 µM; in the assay with CCRF-CEM leukemia, > 100 µM.
In the case of `O=C(O)c1cccc(NC(C(=O)c2ccccc2)c2ccccc2)c1` (stereo unspecified), the TGI with HL-60(TB) leukemia, in the assay with UACC-62 melanoma, in the assay on T-47D breast, in the assay on SK-OV-3 ovarian, in the assay on MDA-N and in the assay on SK-MEL-28 melanoma was > 100 µM each time. Further, the TGI with COLO 205 colon, in the assay on TK-10 renal, in the assay on 786-0 renal and in the assay on CCRF-CEM leukemia was > 100 µM in each case.
